Patent US10030027B2, “Soluble guanylate cyclase stimulators” (MERCK SHARP & DOHME CORP., priority 2015, dated 2018)

Legend:
sGC α1/β1 heterodimer = sGC α1/β1 heterodimer (Homo sapiens (Human), UniProt Q02108+Q02153); assay: Cell-based sGC functional assay (cyclic GMP assay for sGC activator: CASA assay); set-up: % Activation: concentration or dose not given beside the values; conditions: CHO-K1/sGC cells; for Emax: CHO-K1, activity expressed as percentage of compound A (standard), read-out: % Activation; for EC50: inflection point, 4P fit, read-out: IP; for % Activation: activity expressed as percentage of compound A (standard)
Outline: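 CHO-K1 cells stably expressing human sGC α1/β1 were pre-incubated 30 min at 25° C with or without 1 μM DETA-NO, then exposed to compound for 1 hr at 37° C with 0.5 mM IBMX and 2.5% DMSO final. Intracellular cGMP was measured by HTRF, expressed as % of reference sGC-HDA maximum; inflection point and maximum fold induction came from 4-parameter fits.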

[1] = target: human recombinant sGC enzyme (Homo sapiens (Human), UniProt Q02108+Q02153); assay: Size Exclusion Chromatography (SEC) competition binding assay using [3H] Ex-77B as the radioligand; conditions: [3H] Ex-77B radioligand, 24 hours at 37° C.
Experimental: Binding Assay: The binding potencies of sGC compounds to the human recombinant sGC enzyme were determined in a Size Exclusion Chromatography (SEC) competition binding assay using [^3H] Ex-77B as the radioligand. [^3H] Ex-77B was prepared using a standardardized tritium exchange procedure. The parent (non-labeled) molecule was first iodinated then a Pd-catalyzed iodine to tritium exchange provided the labeled compound. […] Assays were conducted in 96-well plates in a total volume of 200 μL. […] Non-specific binding was defined by competition with 1 μM of Ex-77B. After the incubation period, the binding mixtures were loaded onto the gel-filtration plate (ThermoFischer Cat. No. 89808) pre-equilibrated with binding buffer and spun at 1000×g for 3 min at 4° C. on a Bench top centrifuge. The collected eluates in White Frame Clear Well Isoplates (Perkin Elmer Cat #6005040) received 100 μl of UltimaGold scintillation cocktail. The sealed plates were shaken vigorously and span, and counted after 6 hours with a Wallac Microbeta TriLux 1450 LSC & Luminescence Counter (Perkin Elmer). Data from competition experiments were analyzed to determine Ki values using one site fit Ki equation.

| Structure (SMILES) | Emax (sGC α1/β1 heterodimer) [%] | EC50 (sGC α1/β1 heterodimer) [nM] | Ki [1] [nM] | % Activation (sGC α1/β1 heterodimer) [%] |
| --- | --- | --- | --- | --- |
| CC(C)(C)CCn1nc(-c2nc(N)c3c(n2)NC(=O)C3(C)c2nc(CC(C)(C)C(=O)O)co2)c2ccc(Cl)cc21 (stereo not shown) [Example 208A, 3-(2-{4-amino-2-[6-chloro-1-(3,3-dimethylbutyl)-1H-indazol-3-yl]-5-methyl-6-oxo-6,7-dihydro-5H-pyrrolo[2,3-d]pyrimidin-5-yl}-1,3-oxazol-4-yl)-2,2-dimethyl-propanoic acid] | 101 | 453 | 0.253 |  |
| CC(C)(Cc1csc([C@]2(C)C(=O)Nc3nc(-c4nn(CC5CCCCC5)c5ncccc45)nc(N)c32)n1)C(=O)O (single isomer, unassigned) [Example 151A] | 131 | 194 | 0.124 |  |
| CC1(c2ccc(CCS(=O)(=O)O)cc2)C(=O)Nc2nc(-c3nn(Cc4ccccc4F)c4cc(Cl)ccc34)nc(N)c21 (single isomer, unassigned) [Example 258B, 2-(4-{4-Amino-2-[6-chloro-1-(2-fluorobenzyl)-1H-indazol-3-yl]-5-methyl-6-oxo-6,7-dihydro-5H-pyrrolo[2,3-d]pyrimidin-5-yl}phenyl)ethanesulfonic acid] |  | 1730 | 0.08 |  |
| C[C@@]1(c2ccc(CCc3nn[nH]n3)cc2)C(=O)Nc2nc(-c3nn(Cc4ccccc4F)c4ncccc34)nc(N)c21 [Example 240B, (S)-4-amino-2-[1-(2-fluoro-benzyl)-1H-pyrazolo[3,4-b]pyridin-3-yl]-5-methyl-5-{4-[2-(2H-tetrazol-5-yl)ethyl]phenyl}-5,7-dihydro-6H-pyrrolo[2,3-d] pyrimidin-6-one] | 104 | 749 | 0.075 |  |
| C[C@H](NC(=O)CCc1ccc([C@]2(C)C(=O)Nc3nc(-c4nn(Cc5ccccc5F)c5ncccc45)nc(N)c32)cc1)C(=O)O [Example 103B, (5S)-(3-(4-{4-amino-2-[1-(2-fluorobenzyl)-1H-pyrazolo[3,4-b]pyridin-3-yl]-5-methyl-6-oxo-6,7-dihydro-5H-pyrrolo[2,3-d]pyrimidin-5-yl}phenyl)propanoyl)-L-alanine] | 104 | 2950 | 0.045 |  |
| CC(C)(Cc1csc([C@]2(C)C(=O)Nc3nc(-c4nn(CC5CCCCO5)c5ncccc45)nc(N)c32)n1)C(=O)O (single isomer, unassigned) [Example 123AB] |  | 1960 | 0.874 | 95.8 |
| CC1CCC(Cn2nc(-c3nc(N)c4c(n3)NC(=O)[C@@]4(C)c3nc(CC(C)(C)C(=O)O)cs3)c3cccnc32)CC1 (single isomer, unassigned) [Example 125AB] | 138 | 56 | 0.336 |  |
| CC1(c2cccc(-c3nn[nH]n3)c2)C(=O)Nc2nc(-c3nn(Cc4ccccc4F)c4cc(F)ccc34)nc(N)c21 (stereo not shown) [Example 249B, 4-Amino-2-[6-fluoro-1-(2-fluorobenzyl)-1H-indazol-3-yl]-5-methyl-5-[3-(1H-tetrazol-5-yl)phenyl]-5,7-dihydro-6H-pyrrolo[2,3-d]pyrimidin-6-one] | 98.5 | 2620 | 0.068 |  |
| Cc1cccc(Cn2nc(-c3nc(N)c4c(n3)NC(=O)[C@@]4(C)c3ccc(CCC(=O)O)cc3)c3ccccc32)c1 [Example 225B, (S)-3-(4-{4-amino-5-methyl-2-[1-(3-methylbenzyl)-1H-indazol-3-yl]-6-oxo-6,7-dihydro-5H-pyrrolo[2,3-d]pyrimidin-5-yl}phenyl)propanoic acid] | 140 | 460 | 0.342 |  |
| Cc1cccc(Cn2nc(-c3nc(N)c4c(n3)NC(=O)C4(C)c3cnn(CC(C)(C)C(=O)O)c3)c3ccc(F)cc32)c1F (stereo not shown) [Example 211A, 3-(4-{4-amino-2-[6-fluoro-1-(2-fluoro-3-methyl-benzyl)-1H-indazol-3-yl]-5-methyl-6-oxo-6,7-dihydro-5H-pyrrolo[2,3-d]pyrimidin-5-yl}-1H-pyrazol-1-yl)-2,2-dimethyl-propanoic acid] | 96.2 | 1180 | 0.258 |  |
| CC(C)(Cc1coc(C2(C3CC3)C(=O)Nc3nc(-c4nn(Cc5ccccc5F)c5cc(Cl)ccc45)nc(N)c32)n1)C(=O)O (stereo not shown) [Example 138B, 3-(2-{4-amino-2-[6-chloro-1-(2-fluorobenzyl)-1H-indazol-3-yl]-5-cyclopropyl-6-oxo-6,7-dihydro-5H-pyrrolo[2,3-d]pyrimidin-5-yl}-1,3-oxazol-4-yl)-2,2-dimethylpropanoic acid] | 114 | 375 | 0.058 |  |
| CC(C)(Cc1coc(C2(C)C(=O)Nc3nc(-c4nn(Cc5cccc(F)c5)c5cc(Cl)ccc45)nc(N)c32)n1)C(=O)O (stereo not shown) [Example 175A, 3-(2-{4-amino-2-[6-chloro-1-(3-fluorobenzyl)-1H-indazol-3-yl]-5-methyl-6-oxo-6,7-dihydro-5H-pyrrolo[2,3-d]pyrimidin-5-yl}-1,3-oxazol-4-yl)-2,2-dimethyl-propanoic acid] | 139 | 96 | 0.151 |  |
| CC(C)(Cc1csc([C@]2(C)C(=O)Nc3nc(-c4nn(Cc5c(F)ccc(F)c5F)c5ccccc45)nc(N)c32)n1)C(=O)O [Example 224A, (S)-3-(2-{4-amino-5-methyl-6-oxo-2-[1-(2,3,6-trifluorobenzyl)-1H-indazol-3-yl]-6,7-dihydro-5H-pyrrolo[2,3-d]pyrimidin-5-yl}-1,3-thiazol-4-yl)-2,2-dimethyl-propanoic acid] | 111 | 14 | 0.067 |  |
| CC(C)(Cc1coc(C2(C)C(=O)Nc3nc(-c4nn(Cc5cccc(F)c5F)c5cc(F)ccc45)nc(N)c32)n1)C(=O)O (stereo not shown) [Example 200A, 3-(2-{4-amino-2-[1-(2,3-difluoro-benzyl)-6-fluoro-1H-indazol-3-yl]-5-methyl-6-oxo-6,7-dihydro-5H-pyrrolo[2,3-d]pyrimidin-5-yl}-1,3-oxazol-4-yl)-2,2-dimethyl-propanoic acid] | 120 | 220 | 0.052 |  |
| CC1(N2CCC(CCC(=O)O)C2)C(=O)Nc2nc(-c3nn(Cc4ccccc4F)c4cc(Cl)ccc34)nc(N)c21 (single isomer, unassigned) [Example 261C, 3-[1-{4-Amino-2-[6-chloro-1-(2-fluorobenzyl)-1H-indazol-3-yl]-5-methyl-6-oxo-6,7-dihydro-5H-pyrrolo[2,3-d]pyrimidin-5-yl}pyrrolidin-3-yl]propanoic acid] |  | 293 | 0.074 |  |
| CC1(c2nc(C[C@@H](N)C(=O)O)co2)C(=O)Nc2nc(-c3nn(Cc4ccccc4F)c4cc(Cl)ccc34)nc(N)c21 (single isomer, unassigned) [Example 172A, 3-(2-{4-amino-2-[6-chloro-1-(2-fluorobenzyl)-1H-indazol-3-yl]-5-methyl-6-oxo-6,7-dihydro-5H-pyrrolo[2,3-d]pyrimidin-5-yl}-1,3-oxazol-4-yl)-D-alanine] | 92.7 | 1030 | 0.098 |  |
| Nc1nc(-c2nn(CCC(F)(F)C(F)(F)F)c3cc(Cl)ccc23)nc2c1C(c1ccc(CCC(=O)O)cc1)(C1CC1)C(=O)N2 (stereo not shown) [Example 158A, 3-(4-{4-amino-2-[6-chloro-1-(3,3,4,4,4-penta-fluorobutyl)-1H-indazol-3-yl]-5-cyclopropyl-6-oxo-6,7-dihydro-5H-pyrrolo[2,3-d]pyrimidin-5-yl}phenyl)propanoic acid] | 88.8 | 353 | 0.864 |  |
| C[C@@]1(c2ccc(CCC(=O)N[C@H](CO)C(=O)O)cc2)C(=O)Nc2nc(-c3nn(Cc4ccccc4F)c4ncccc34)nc(N)c21 [Example 106B, (5S)-(3-(4-{4-amino-2-[1-(2-fluorobenzyl)-1H-pyrazolo[3,4-b]pyridin-3-yl]-5-methyl-6-oxo-6,7-dihydro-5H-pyrrolo[2,3-d]pyrimidin-5-yl}phenyl)propanoyl)-D-serine] | 70 | 1500 | 0.058 |  |
| CC(C)(Cc1csc([C@]2(C)C(=O)Nc3nc(-c4nn(CC5CCCCO5)c5ccccc45)nc(N)c32)n1)C(=O)O (single isomer, unassigned) [Example 229AA] |  | 770 | 0.496 | 114.6 |
| CC1(c2ccc(OCC(=O)O)cc2)C(=O)Nc2nc(-c3nn(Cc4ccccc4F)c4cc(Cl)ccc34)nc(N)c21 (stereo not shown) [Example 260A, (4-{4-Amino-2-[6-chloro-1-(2-fluorobenzyl)-1H-indazol-3-yl]-5-methyl-6-oxo-6,7-dihydro-5H-pyrrolo[2,3-d]pyrimidin-5-yl}phenoxy)acetic acid] | 136 | 125 | 0.058 |  |
| CC1(c2nc3cc(C(=O)O)ccc3s2)C(=O)Nc2nc(-c3nn(Cc4ccccc4F)c4cc(Cl)ccc34)nc(N)c21 (stereo not shown) [Example 130A, 2-{4-amino-2-[6-chloro-1-(2-fluorobenzyl)-1H-indazol-3-yl]-5-methyl-6-oxo-6,7-dihydro-5H-pyrrolo[2,3-d]pyrimidin-5-yl}-1,3-benzothiazole-5-carboxylic acid] | 116 | 1230 | 0.184 |  |
